Series [1] in a line: Solubility in aqueous medium. In kind it is physicochemical.
The target of series [2] is T1, renin (Homo sapiens, UniProt P00797).
T1 sequence (P00797 67-406): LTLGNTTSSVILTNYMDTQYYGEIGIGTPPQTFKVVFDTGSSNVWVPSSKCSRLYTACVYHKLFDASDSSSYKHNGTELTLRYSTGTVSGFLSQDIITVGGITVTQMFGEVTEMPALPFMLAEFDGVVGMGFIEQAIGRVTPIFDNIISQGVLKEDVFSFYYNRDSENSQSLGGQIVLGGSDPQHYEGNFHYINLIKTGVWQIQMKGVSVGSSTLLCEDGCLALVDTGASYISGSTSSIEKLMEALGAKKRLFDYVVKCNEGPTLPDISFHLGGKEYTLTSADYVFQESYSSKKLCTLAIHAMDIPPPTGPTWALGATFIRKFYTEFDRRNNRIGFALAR
Put plainly: biochemical.
Protocol: The peptide being tested is dissolved in 0.01 N HCl and the pH adjusted to pH 7.5 to obtain high concentrations of peptide. The peptide solution is diluted further to appropriate concentrations with 0.1 M Tris HCl-albumin.
First, to determine Km, renin (0.006 Goldblatt unit/ml) is incubated for 2 hrs. at 37° with incremental concentrations of tetradecapeptide substrate varying between 3 and 108μ M in a volume of 160 μl at pH 7.5 in 0.1M Tris HCl containing 0.5% albumin. The release of angiotensin I is determined by radioimmunoassay (Haber et al, J. Clin. Endocrinol. Metab. 29, 1349 (1969)). […] Controls for cross-relatively are performed with each experiment and appropriate corrections are made when significant, (Poulsen et al, Scand. J. Clin. Lab. Invest. 31, Suppl. No. 132, 1, (1973)).
The inhibitor constant is calculated at previously described, (Poulsen et al, Scand. J. Clin. Lab. Invest. 31, suppl. No. 132, 1, (1973)), from a weighted leastsquares fit of a Lineweaver-Burk plot. […]
Angiotensin I standards and tetradecapeptide renin substrate were obtained from Peninsula (San Mateo, CA). Angiotensin I concentrations were determined with the radio immunoassay kit purchased from New England Nuclear (Boston, MA). […]
Data from the RIA was worked up using a computer program. Data were first fitted to a Lineweaver-Burke plot and from this KI was calculated.

The nature of series [3]: log P. Type of series: physicochemical.
Series [4] can be described thus: Half life in vivo (loss of radioactively labeled peptide from the circulation). The procedure: The polypeptides of this invention are characterized by solubility in an aqueous medium at physiologic pH of 100-500 μm, an inhibition constant for (Ki) of between 1-50 μm and a half-life in vivo, as measured by rate of loss of radioactively labeled peptide from the circulation, of between about 1-10 minutes, especially 5-10 minutes.

The target in series [5] is T1, renin. The settings on record: octapeptides with replaced Leu-Leu cleavage site, prior art; read-out: binding constants; cited from earlier work.
[6] abbreviates: pH 7.4, water, pH 7.40, read-out: Solubility (pH 7.40).

Values after ≈ are worked out from the molar mass of the structure shown. Read-outs that look alike come from different tables or passages of the source. Where a SMILES comes first, the peptide text is derived from it. [ ]: non-standard residue; d: D form.

As a reminder, the solubility is the dissolved amount per volume that the medium holds. The term logP denotes a log measure of how a compound divides between an organic and an aqueous phase. Low values mean lower lipophilicity, high ones higher lipophilicity. Consider `CC(C)[C@H](NC(=O)[C@H](Cc1ccccc1)NC(=O)[C@H](Cc1ccccc1)NC(=O)[C@H](Cc1c[nH]cn1)NC(=O)[C@H](Cc1ccccc1)NC(=O)[C@@H]1CCCN1C(=O)[C@H](Cc1c[nH]cn1)NC(=O)[C@@H]1CCCN1)C(=O)N[C@@H](Cc1ccc(O)cc1)C(=O)N[C@H](CCCCN)C(=O)O` [D-RIP, Pro-His-Pro-Phe-His-Phe-Phe-Val-Tyr-D-Lys] (H-PHPFHFFVY[dK]-OH), for which the solubility in series [1] and in series [1] (setting [6]) was 330 µM (≈ 435 µg/mL) in each case. In addition, the Ki in series [2] was 29.5 µM. For the same compound, in series [3], the logP was -1.28. Further, the “Half life in vivo” value in series [4] is recorded as 5 min.

For `CC(C)[C@H](NC(=O)[C@H](Cc1ccccc1)NC(=O)[C@H](Cc1ccccc1)NC(=O)[C@H](Cc1cnc[nH]1)NC(=O)[C@H](Cc1ccccc1)NC(=O)[C@@H]1CCCN1C(=O)[C@H](Cc1cnc[nH]1)NC(=O)[C@@H]1CCCN1)C(=O)N[C@@H](Cc1ccc(O)cc1)C(=O)N[C@@H](CCCCN)C(=O)O` [RIP, Pro-His-Pro-Pre-His-Phe-Phe-Val-Tyr-Lys] (H-PHPFHFFVYK-OH), the solubility in series [1] (setting [6]) was determined as 840 µM (≈ 1110 µg/mL). Besides, in series [2], the Ki amounted to 42 µM. Also, the “life in vitro and in vivo” value in series [4] (in vitro and in vivo) is “relatively short life”. In addition, in series [4], the “Half life in vivo” value is reported as 3.8 min.

Regarding Leu-Phe, the Ki in series [5] was 4 µM.

With Leu-Tyr, the Ki in series [5] was 12 µM.

These data come from patent US4478827A, “Renin inhibitors” (The General Hospital Corporation, priority 1983, dated 1984).
